# Measured values as given in ChEMBL document CHEMBL4425089, “Chemical Space of DNA-Encoded Libraries” (J Med Chem, 2016).
# How the values were obtained:
# Interleukin-2 = Interleukin-2 (Homo sapiens, UniProt P60568); assay: Binding affinity to human IL-2 measured over 30 mins by fluorescence polarization assay
# [1] = target: Proto-oncogene tyrosine-protein kinase Src (Gallus gallus, UniProt P00523); assay: Inhibition of chicken Src kinase domain using AEEEIYGEFAKKK as substrate by continuous spectrophotometric assay
# [2] = target: T1, 2',5'-phosphodiesterase 12 (Homo sapiens, UniProt Q6L8Q7); assay: Inhibition of human PDE12 (17 to 609 residues) expresssed in Escherichia coli BL21(DE3) cells using 2-5A as substrate assessed as AMP monomers and ATP formation after 30 mins by AMP-Glo assay
# T1 sequence (Q6L8Q7 whole entry): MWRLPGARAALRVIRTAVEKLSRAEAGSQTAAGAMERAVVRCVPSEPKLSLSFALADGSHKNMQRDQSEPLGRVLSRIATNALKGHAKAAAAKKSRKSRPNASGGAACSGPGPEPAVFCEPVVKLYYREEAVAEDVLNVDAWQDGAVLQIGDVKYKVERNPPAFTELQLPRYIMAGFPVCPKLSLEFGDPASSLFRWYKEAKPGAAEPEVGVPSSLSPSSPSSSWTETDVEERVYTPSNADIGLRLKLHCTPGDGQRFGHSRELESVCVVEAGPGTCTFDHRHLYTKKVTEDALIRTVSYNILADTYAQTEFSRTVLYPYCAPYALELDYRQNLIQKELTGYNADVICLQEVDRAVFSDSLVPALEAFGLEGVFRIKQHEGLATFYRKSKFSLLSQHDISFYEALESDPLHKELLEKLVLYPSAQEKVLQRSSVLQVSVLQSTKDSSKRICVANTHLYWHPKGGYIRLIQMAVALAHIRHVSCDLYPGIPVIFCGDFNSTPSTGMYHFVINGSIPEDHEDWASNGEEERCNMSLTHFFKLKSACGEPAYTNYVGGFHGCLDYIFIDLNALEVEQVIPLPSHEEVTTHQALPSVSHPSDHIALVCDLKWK
# [3] = Displacement of [3H]-3-(1-(3-chloro-6-isopropyl-8-(trifluoromethyl)imidazo[1,2-a]pyridine-2-carbonyl)piperidin-4-yl)oxazolidin-2-one from HCV genotype 1b C-terminal His6-tagged NS4B (1 to 261 residues) expressed in baculovirus infected insect SF9 cells; parameters: species or system Hepatitis C virus subtype 1b
# [4] = Binding affinity to HSP70 (unknown origin) by surface plasmon resonance method; parameters: species or system Homo sapiens
# Protein phosphatase 1D = target: T2, Protein phosphatase 1D (Homo sapiens, UniProt O15297); assay: Inhibition of human Wip1 (2 to 420 residues) expressed in baculovirus-infected insect SF9 cells assessed as fluorescein diphosphate hydrolysis after 5 mins by fluorescence assay
# T2 sequence (O15297 whole entry): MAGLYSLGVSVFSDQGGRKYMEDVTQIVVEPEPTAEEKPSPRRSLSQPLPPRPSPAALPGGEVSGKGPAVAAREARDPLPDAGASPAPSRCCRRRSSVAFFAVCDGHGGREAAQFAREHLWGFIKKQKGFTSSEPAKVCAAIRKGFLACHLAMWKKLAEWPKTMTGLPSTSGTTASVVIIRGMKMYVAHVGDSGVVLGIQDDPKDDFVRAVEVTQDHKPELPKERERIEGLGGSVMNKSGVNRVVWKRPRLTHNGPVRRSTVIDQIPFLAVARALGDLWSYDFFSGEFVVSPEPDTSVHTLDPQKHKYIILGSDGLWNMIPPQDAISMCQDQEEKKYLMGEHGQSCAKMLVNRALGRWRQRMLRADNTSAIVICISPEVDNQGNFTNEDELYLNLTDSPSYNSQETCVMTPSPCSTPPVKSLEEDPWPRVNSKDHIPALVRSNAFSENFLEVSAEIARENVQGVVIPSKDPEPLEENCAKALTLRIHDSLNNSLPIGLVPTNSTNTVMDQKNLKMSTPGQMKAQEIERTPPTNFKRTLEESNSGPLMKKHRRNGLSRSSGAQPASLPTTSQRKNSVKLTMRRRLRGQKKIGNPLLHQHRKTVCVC
# [5] = Binding affinity to human plasma AGP by isothermal titration calorimetry; format: ADME
# MAP kinase p38 = MAP kinase p38 (Homo sapiens, UniProt O15264+Q15759+Q16539+P53778); assay: Inhibition of p38 MAPK (unknown origin); format: protein assay
# Sequence of Interleukin-2 (P60568 whole entry, the tested form may be a part): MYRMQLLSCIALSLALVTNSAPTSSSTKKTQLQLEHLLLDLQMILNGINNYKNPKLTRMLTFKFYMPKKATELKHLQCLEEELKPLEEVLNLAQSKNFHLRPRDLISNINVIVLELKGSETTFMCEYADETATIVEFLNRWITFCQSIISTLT
compound,measurement,setting,value
CCCC#Cc1ccc(C[C@@H](NC(=O)CCn2c(C)cc3ccccc32)C(=O)O)cc1,Kd,Interleukin-2,4200 nM
O=C1/C=C\C(=O)N[C@@H](CC2CCCCC2)C(=O)N[C@@H](Cc2ccccc2)C(=O)N[C@@H](CCCNC(=O)c2cnccn2)C(=O)NCC[C@@H](C(=O)O)N1,IC50,[1],4 nM
CCn1cc(-c2nc3cc(Br)c(C(=O)N4CCO[C@@H](c5ccc(F)cc5)[C@@H]4CO)cc3n2C)c2ccc(C#N)cc21,IC50,[2],0.8 nM
O=C(c1ccc2[nH]ccc2c1)N1CCC2(CCCN(c3ncc(-c4ccccc4)c(-c4ccc(Cl)cc4)n3)C2)CC1,IC50,[3],42 nM
NC(=O)C(CNC(=O)c1ccc2[nH]nc(Br)c2c1)NC(=O)c1cccc(NC(=O)CCC(=O)c2ccc(-c3ccccc3)cc2)c1 (stereo not drawn),Kd,[4],0.64 nM
Cc1ncc(Cl)cc1NCc1ccc(C(=O)N[C@@H](CC2CCCC2)C(=O)NC2CC2)s1,IC50,Protein phosphatase 1D,6 nM
Cc1ccc(S(=O)(=O)N(CC(=O)NCCOCCC(=O)NCCOCCC(=O)N[C@@H](CCCCNC(=O)/C=C/c2ccc(-c3ccccc3C(F)(F)F)o2)C(=O)O)c2ccccc2-c2ccccc2)cc1,Kd,[5],5800 nM
CNC(=O)C(Cc1ccc2c(c1)COC(C)(C)O2)Nc1nc(O)nc(-n2ccc3ccc(C(=O)N4CCCc5ccccc54)cc32)n1 (stereo not drawn),IC50,MAP kinase p38,7 nM
